The assay has as its system cat with Gran Mal seizures. Kind of assay: Taurox SB added to food of a cat with Gran Mal seizures. The class given is in vivo. As to conditions: cat Misty, before Taurox SB. The source says:
The homeopathic remedy may be included in food. For example, Misty, a cat who had been accepted by a rescue shelter, suffered with severe, potentially life-threatening Gran Mal seizures about three times a day and almost every other day. […] Overall, she averaged a few a month while being treated.
The homeopathic remedy may also be included in food. […] This invention applies to all foods from treats treated with the homeopathic on site, to the bulk supplied food while making it, to massive watering systems used to water livestock or irrigate fields. It applies to all forms of life including human, animal and plant.

With Bromide salts, the “benefit on seizures of earlier medication” value is recorded as “without significant benefits”.

Source of the values: US8815948B2, “High volume and alternative methods of delivering homeopathic remedies” (Dovetail Technologies, Inc., priority 2004, dated 2014).
